Source: patent US20070269512A1, “GASTRORETENTIVE SUSTAINED RELEASE FORMULATIONS” (priority 2006, published 2007)

Assay: Pharmacokinetic study, plasma concentrations by LC-MS/MS
Set-up: species or system beagle dogs
Conditions: dog, in vivo
Description: Each overnight-fasted dog in group 1 received an intravenous bolus dose administration (1 mg/kg) of the compound of Formula (I). Following i.v. dose administration, blood samples (˜3 mL) were collected via jugular venipuncture, or other suitable site, into EDTA tubes and placed on wet ice, at predose (0.0), 0.25, 0.5, 1, 2, 4, 8, and 24 hours post dose. Each overnight-fasted dog in groups 2-5 received a single oral dose (200 mg) of compound of Formula (I). Following oral dose administration, blood samples (˜3 mL) were collected via jugular venipuncture, or other suitable site, into EDTA tubes and placed on wet ice, at predose (0.0), 0.25, 0.5, 1, 2, 4, 8, 24, 36, and 48 hours post dose. Plasma was harvested by centrifugation, each plasma sample are split into approximately equal parts before being frozen at −70° C. Food was returned after the 4 hour blood sample is collected. All samples were processed within two hours of collection. All samples are labeled with the study number, test article, dose, time interval, species, and animal identification number.
One set of plasma samples were analyzed for unchanged compound of Formula (I) concentrations using a liquid chromatographic-triple quadrupole mass spectrometric (LC-MS/MS) assay procedure. Any remaining plasma was retained for possible metabolite profiling. […]

**Q.** Which colonic absorption does the source give for `Cc1cnc(NCC(F)(F)c2ccccc2)c(=O)n1CC(=O)NCCONC(=N)N` [Compound X] here?
**A.** very poor colonic absorption
